Consider five compounds from PMC5108032, “Discovery of a Quinoline-4-carboxamide Derivative with a Novel Mechanism of Action, Multistage Antimalarial Activity, and Potent in Vivo Efficacy” (Journal of Medicinal Chemistry, 2016).

One series is described as follows: Mouse pharmacokinetics. It is filed as in vivo, female NMRI mice. The following applies: intravenous at 3 mg/kg. The method, then:
(100 µl) was then removed from both acceptor and donor compartments and mixed with acetonitrile (80 µl) containing an internal standard. The samples were centrifuged (10 min, 5 °C, 3270 g) to sediment precipitated protein and sealed prior to UPLC-MS/MS analysis using a Quattro Premier XE (Waters Corp, USA). Pe was calculated as shown in the below equation:
Pe (nm/sec) = 107 x - In [1 - CA (t) / Cequi]
CA(t) = peak area of compound present in acceptor well at time t = 18000 sec Cequi = [CD(t) * VD + CA(t) * VA] / (VD + VA)
VA = acceptor well volume
CD(t) = peak area of compound present in donor well at time t = 18000 sec Recovery of compound from donor and acceptor wells was calculated and data was only accepted when recovery exceeded 70 %.
Human ether-à-go-go related gene (hERG) K+ assay (Outsourced)
Compounds were tested for inhibition of the human ether-à-go-go-related gene (hERG) K+ channel using IonWorks patch clamp electrophysiology. Eight-point concentration-response curves were generated on 2 occasions using 3-fold serial dilutions from the maximum final assay concentration.
Compound was dosed as a bolus solution intravenously (12) at 3mg free base/kg (dose volume: 5 mL/kg; dose vehicle: 10% DMSO, 90% saline) to female NMRI mice (n=3) or dosed orally (12 and 13) by gavage as a solution at 10 mg free base/kg (dose volume: 10mL/kg; Dose vehicle: 5 or 10% DMSO; 40% PEG400; 50 or 55% distilled water) to female NMRI mice (n=3/dose level). Female NMRI mice were chosen as these represent the sex and strain used for the P.berghei mouse model of malaria. Blood samples (10 µl) were taken from each mouse at 5, 15 and 30 minutes, 1, 2, 4, 6, and 8 hours post-dose, mixed with two volumes of distilled water and stored frozen until UPLC-MS/MS analysis. The level of each compound in mouse blood was determined by UPLC-MS/MS as previously reported.9 Pharmacokinetic parameters were derived from the blood concentration time curve using PKsolutions software v 2.0 (Summit Research Services, USA). […]

For series [1], the system named is Plasmodium falciparum strain 3D7. Nature of the series: Plasmodium falciparum screening, SYBR green growth inhibition. It is filed as cell-based. The conditions noted are these: 3D7, supplementary csv, read-out: Pf (3D7) EC50. The protocol:
Plasmodium falciparum screening
Assays against P. falciparum were conducted as previously described.1 Cultures of the widely-used malaria reference strain of chloroquine-sensitive Plasmodium falciparum strain 3D7 were maintained in a 5% suspension of human red blood cells (obtained from East of Scotland Blood Transfusion Service, Ninewells Hospital, Dundee) cultured in RPMI 1640 medium (pH 7.3) supplemented with 0.5% Albumax II (Gibco Life Technologies, San Diego, CA), 12 mM sodium bicarbonate, 0.2 mM hypoxanthine and 20 mg/L gentamicin at 37°C, in a humidified atmosphere of 1% O 2, 3% CO2 with a balance of nitrogen. Growth inhibition was quantified using a fluorescence assay utilising the binding of SYBR green to double stranded DNA, which emits a fluorescent signal at 528 nm after excitation at 485nm.2 Mefloquine (potency range 30-60 nM) was used as a drug control to monitor the quality of the assay (Z’ = 0.6 to 0.8, Signal to background >3, where Z’ is a measure of the discrimination between the positive and negative controls on a screen plate). A 96-well [3H]-Hypoxanthine incorporation assay was also developed as a secondary assay in order to validate compounds from the initial screen in an orthogonal platform.3 Compound bioactivity from both assays was expressed as […]
P. falciparum (panel of resistant strains) in vitro assay. (Swiss TPH)
All Plasmodium strains were cultured according to Trager and Jensen and are described at www.beiresources.org (resistant strains: K1, W2, 7G8, TM90C2A, D6 and V1/S, sensitive strain:
NF54). EC50 values were determined in vitro by measuring incorporation of the nucleic acid precursor […]
Mammalian Cell Growth Inhibition assay
A counter-screen against normal diploid human fibroblasts (MRC-5 cell line) was carried out to exclude non-selective, and toxic compounds. The assay was essentially carried out as described previously.4 Cells were plated and incubated overnight to allow them to adhere as monolayers. A working stock of each test compound was transferred to an intermediate 384-well plate and pre-diluted with minimum essential media (MEM). The pre-diluted stocks were then transferred onto the cell monolayers, and the plates were incubated for 68 h. Resazurin, to a final concentration of 50 μM, was added to each well, after which plates were incubated for a further 3 h and measured for fluorescence (λex=528 nm, λem=590 nm)
In vitro Cell Assay Data Analysis.
All data was processed using IDBS ActivityBase® raw data was converted into per cent inhibition through linear regression by setting the high inhibition control as 100% and the no inhibition control as 0%. Quality control criteria for passing plates were as follows: Z’> 0.5, S:B> 3, %CV(no inhibition < 15 . The formula used to calculate Z’ is 1 3× (St D e v _ hi gh + St D e v _ low) . […]
All EC50 Curve fitting was undertaken using XLFit version 4.2 using Model 205 with the following 4 parametric equation: y = A + B A A + ($-&) ,where A=% inhibition at bottom, B=% […]
inhibition at top, C= EC50, D= slope, x= inhibitor concentration and y= % inhibition. […]
reach 100% of inhibition, B was fixed to 100 only when at least 50% of inhibition was reached.
Plasmodium falciparum late stage (IV-V) gametocyte high content imaging assay Plasmodium falciparum NF54-pfs16-LUC-GFP stage IV-V Gametocytes were produced as described previously.5 Compounds were solubilized in DMSO and serially diluted in three concentrations per log standard curves in DM SO. One µl of compound was subsequently diluted in 25µl of water (4% DMSO) and 5µl transferred into the base of 384 well PerkinElmer CellCarrier plates. Forty-five µl of stage IV-V gametocytes (10%P in 0.1%H) were added to the imaging plates which were in turn sealed with a gas permeable membrane and incubated at 37°C, 5% CO 2, 5% O2, 90% N2 and 60% humidity […]
Post incubation, 5µl of MitoTracker® Red CM -H2Xros (MTR) solution (0.66ug/ml) was added to all wells and the plates incubated for a further 16hours. […]

Regarding `O=C(NCCN1CCCC1)c1cc(NCCCCN2CCOCC2)nc2ccc(Cl)cc12` [Compound 27, 6-Chloro-2-((4-morpholinobutyl)amino)-N-(2-(pyrrolidin-1-yl)ethyl)quinoline-4-carboxamide], in the series “Mouse pharmacokinetics”, the Clb was 4 mL min^–1 kg^–1. Besides, the EC50 (usually the concentration that produces a half-maximal response) in series [1] was 3.8 nM. With `O=C(NCCN1CCCC1)c1cc(-c2ccc(S(=O)(=O)N3CCOCC3)cc2)nc2ccc(F)cc12` [Compound 38, 6-Fluoro-2-(4-(morpholinosulfonyl)phenyl)-N-(2-(pyrrolidin-1-yl)ethyl)quinoline-4-carboxamide], the half-maximal effective concentration (EC50) in series [1] worked out at 4.4 nM. For the compound `O=C(NCCN1CCCC1)c1cc(-c2ccc(CN3CCOCC3)cc2F)nc2ccc(F)cc12` [Compound 41], the EC50 in series [1] was determined as 1.9 nM. For `O=C(NCCN1CCCC1)c1cc(NCCCN2CCOCC2)nc2ccc(F)cc12` [Compound 25, 6-Fluoro-2-((3-morpholinopropyl)amino)-N-(2-(pyrrolidin-1-yl)ethyl)quinoline-4-carboxamide], in “Mouse pharmacokinetics”, the Clb turned out to be 14 mL min^–1 kg^–1. On the same count and under the same terms, the figure for `O=C(NCCN1CCCC1)c1cc(NCCC2CCOCC2)nc2ccc(Cl)cc12` [Compound 30, 6-Chloro-N-(2-(pyrrolidin-1-yl)ethyl)-2-((2-(tetrahydro-2H-pyran-4-yl)ethyl)amino)quinoline-4-carboxamide] is 34 mL min^–1 kg^–1.
